Laboratory results as given in ChEMBL document CHEMBL1201862, “PubChem BioAssay data set” (2004).
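Dose response: 5 concentrations. Exposure: 48 h. Format: 96-well plates. Endpoint: linear interpolation; highest concentration if not reached. The concentration for 50% growth inhibition is given as GI50.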 Active and inactive are the calls of the source. Cut-off read from the data, not from the text of the source: active = GI50 up to about 1.1 µM and inactive = higher.

Tests used:
Experiment in all cases: NCI anticancer screen, dose series, 48 h
786-0 = test system: 786-0
A498 = test system: A498
A549 = test system: A549
ACHN = test system: ACHN
BT-549 = test system: BT-549
CCRF-CEM = test system: CCRF-CEM
COLO 205 = test system: COLO 205
DU-145 = test system: DU-145
EKVX = test system: EKVX
HCC 2998 = test system: HCC 2998
HCT-116 = test system: HCT-116
HCT-15 = test system: HCT-15
HL-60 = test system: HL-60
HOP-62 = test system: HOP-62
HT-29 = test system: HT-29
Hs-578T = test system: Hs-578T
IGROV-1 = test system: IGROV-1
K562 = test system: K562
KM12 = test system: KM12
LOX IMVI = test system: LOX IMVI
M14 = test system: M14
MCF7 = test system: MCF7
MDA-MB-435 = test system: MDA-MB-435
MDA-N = test system: MDA-N
MOLT-4 = test system: MOLT-4
Malme-3M = test system: Malme-3M
NCI-H226 = test system: NCI-H226
NCI-H23 = test system: NCI-H23
NCI-H460 = test system: NCI-H460
NCI-H522 = test system: NCI-H522
NCI/ADR-RES = test system: NCI/ADR-RES
OVCAR-3 = test system: OVCAR-3
OVCAR-4 = test system: OVCAR-4
OVCAR-5 = test system: OVCAR-5
OVCAR-8 = test system: OVCAR-8
PC-3 = test system: PC-3
RPMI-8226 = test system: RPMI-8226
RXF 393 = test system: RXF 393
SF-268 = test system: SF-268
SF-295 = test system: SF-295
SF-539 = test system: SF-539
SK-MEL-28 = test system: SK-MEL-28
SK-MEL-2 = test system: SK-MEL-2
SK-MEL-5 = test system: SK-MEL-5
SK-OV-3 = test system: SK-OV-3
SN12C = test system: SN12C
SNB-19 = test system: SNB-19
SNB-75 = test system: SNB-75
SR = test system: SR
SW-620 = test system: SW-620
T47D = test system: T47D
TK-10 = test system: TK-10
U-251 = test system: U-251
UACC-62 = test system: UACC-62
UO-31 = test system: UO-31
CAKI-1 = test system: CAKI-1
HOP-92 = test system: HOP-92
MDA-MB-231 = test system: MDA-MB-231
UACC-257 = test system: UACC-257

## O=c1[nH]c2nccnc2c2c([N+](=O)[O-])cccc12
786-0
  GI50: > 100 µM (inactive)
A498
  GI50: > 100 µM (inactive)
A549
  GI50: > 100 µM (inactive)
ACHN
  GI50: > 100 µM (inactive)
BT-549
  GI50: 65.2 µM (inactive)
CCRF-CEM
  GI50: > 100 µM (inactive)
COLO 205
  GI50: > 100 µM (inactive)
DU-145
  GI50: > 100 µM (inactive)
EKVX
  GI50: > 100 µM (inactive)
HCC 2998
  GI50: > 100 µM (inactive)
HCT-116
  GI50: > 100 µM (inactive)
HCT-15
  GI50: > 100 µM
HL-60
  GI50: > 100 µM (inactive)
HOP-62
  GI50: > 100 µM (inactive)
HT-29
  GI50: > 100 µM (inactive)
Hs-578T
  GI50: 55.5 µM (inactive)
IGROV-1
  GI50: > 100 µM (inactive)
K562
  GI50: > 100 µM (inactive)
KM12
  GI50: > 100 µM (inactive)
LOX IMVI
  GI50: 81.8 µM (inactive)
M14
  GI50: > 100 µM (inactive)
MCF7
  GI50: > 100 µM (inactive)
MDA-MB-435
  GI50: > 100 µM (inactive)
MDA-N
  GI50: > 100 µM (inactive)
MOLT-4
  GI50: > 100 µM (inactive)
Malme-3M
  GI50: > 100 µM (inactive)
NCI-H226
  GI50: 95.5 µM (inactive)
NCI-H23
  GI50: > 100 µM (inactive)
NCI-H460
  GI50: > 100 µM (inactive)
NCI-H522
  GI50: 49.9 µM (inactive)
NCI/ADR-RES
  GI50: > 100 µM (inactive)
OVCAR-3
  GI50: > 100 µM (inactive)
OVCAR-4
  GI50: > 100 µM (inactive)
OVCAR-5
  GI50: > 100 µM (inactive)
OVCAR-8
  GI50: > 100 µM (inactive)
PC-3
  GI50: 78.9 µM (inactive)
RPMI-8226
  GI50: > 100 µM (inactive)
RXF 393
  GI50: 58.2 µM (inactive)
SF-268
  GI50: > 100 µM (inactive)
SF-295
  GI50: > 100 µM (inactive)
SF-539
  GI50: > 100 µM (inactive)
SK-MEL-28
  GI50: > 100 µM (inactive)
SK-MEL-2
  GI50: > 100 µM (inactive)
SK-MEL-5
  GI50: 88.3 µM (inactive)
SK-OV-3
  GI50: > 100 µM (inactive)
SN12C
  GI50: > 100 µM (inactive)
SNB-19
  GI50: > 100 µM (inactive)
SNB-75
  GI50: > 100 µM (inactive)
SR
  GI50: > 100 µM (inactive)
SW-620
  GI50: > 100 µM (inactive)
T47D
  GI50: 20.5 µM (inactive)
TK-10
  GI50: 81.8 µM (inactive)
U-251
  GI50: > 100 µM (inactive)
UACC-62
  GI50: > 100 µM (inactive)
UO-31
  GI50: 44.1 µM (inactive)

## C=C(C(=O)OC)[C@H]1CC/C(C)=C/CC[C@@](C)(O)C=CC[C@@]2(C)O[C@@H]2C1
786-0
  GI50: 17.6 µM (inactive)
A498
  GI50: 20.7 µM (inactive)
A549
  GI50: 81.3 µM (inactive)
ACHN
  GI50: 36.3 µM (inactive)
BT-549
  GI50: 76.2 µM (inactive)
CAKI-1
  GI50: 24.1 µM (inactive)
COLO 205
  GI50: 13.6 µM (inactive)
DU-145
  GI50: 22.9 µM (inactive)
EKVX
  GI50: 20.8 µM (inactive)
HCC 2998
  GI50: 42.1 µM (inactive)
HCT-116
  GI50: 18.8 µM (inactive)
HCT-15
  GI50: 24.2 µM
HOP-62
  GI50: 44.3 µM (inactive)
HOP-92
  GI50: 19.1 µM (inactive)
HT-29
  GI50: 15.2 µM (inactive)
IGROV-1
  GI50: 46.6 µM (inactive)
K562
  GI50: > 10 µM (inactive)
KM12
  GI50: 37.6 µM (inactive)
M14
  GI50: 62.8 µM (inactive)
MCF7
  GI50: 40.8 µM (inactive)
MDA-MB-231
  GI50: 56.9 µM (inactive)
MDA-MB-435
  GI50: 17.3 µM (inactive)
MDA-N
  GI50: 49.4 µM (inactive)
MOLT-4
  GI50: 12.7 µM (inactive)
NCI-H226
  GI50: > 100 µM (inactive)
NCI-H23
  GI50: 24.1 µM (inactive)
NCI-H460
  GI50: > 100 µM (inactive)
NCI/ADR-RES
  GI50: 14.3 µM (inactive)
OVCAR-3
  GI50: 17.7 µM (inactive)
OVCAR-4
  GI50: 64.6 µM (inactive)
OVCAR-5
  GI50: > 100 µM (inactive)
OVCAR-8
  GI50: 13.9 µM (inactive)
PC-3
  GI50: 44.4 µM (inactive)
RPMI-8226
  GI50: 16.1 µM (inactive)
RXF 393
  GI50: 32.4 µM (inactive)
SF-268
  GI50: 19.6 µM (inactive)
SF-295
  GI50: > 100 µM (inactive)
SF-539
  GI50: 21.5 µM (inactive)
SK-MEL-28
  GI50: 10.9 µM (inactive)
SK-MEL-2
  GI50: 97.1 µM (inactive)
SK-MEL-5
  GI50: 1.04 µM (active)
SK-OV-3
  GI50: > 100 µM (inactive)
SN12C
  GI50: 47.4 µM (inactive)
SNB-19
  GI50: > 100 µM (inactive)
SNB-75
  GI50: > 100 µM (inactive)
SR
  GI50: 9.93 µM (inactive)
SW-620
  GI50: 28.1 µM (inactive)
T47D
  GI50: 37.3 µM (inactive)
TK-10
  GI50: 40.6 µM (inactive)
U-251
  GI50: 40.4 µM (inactive)
UACC-257
  GI50: 27.5 µM (inactive)
UACC-62
  GI50: 31.9 µM (inactive)
UO-31
  GI50: 21.4 µM (inactive)

## COc1cc(C2=C(c3cc(OC)c4ccccc4c3OC)C(=O)c3ccccc3C2=O)c(OC)c2ccccc12
786-0
  GI50: > 100 µM (inactive)
A498
  GI50: > 100 µM (inactive)
A549
  GI50: > 100 µM (inactive)
ACHN
  GI50: > 100 µM (inactive)
BT-549
  GI50: > 100 µM (inactive)
CAKI-1
  GI50: > 100 µM (inactive)
CCRF-CEM
  GI50: > 100 µM (inactive)
COLO 205
  GI50: > 100 µM (inactive)
DU-145
  GI50: > 100 µM (inactive)
EKVX
  GI50: > 100 µM (inactive)
HCT-116
  GI50: > 100 µM (inactive)
HCT-15
  GI50: > 100 µM
HL-60
  GI50: 10.2 µM (inactive)
HOP-62
  GI50: > 100 µM (inactive)
HOP-92
  GI50: > 100 µM (inactive)
HT-29
  GI50: > 100 µM (inactive)
Hs-578T
  GI50: > 100 µM (inactive)
IGROV-1
  GI50: > 100 µM (inactive)
KM12
  GI50: > 100 µM (inactive)
LOX IMVI
  GI50: > 100 µM (inactive)
M14
  GI50: 82.4 µM (inactive)
MCF7
  GI50: > 100 µM (inactive)
MDA-MB-435
  GI50: > 100 µM (inactive)
MDA-N
  GI50: > 100 µM (inactive)
MOLT-4
  GI50: > 100 µM (inactive)
Malme-3M
  GI50: 62.5 µM (inactive)
NCI-H226
  GI50: 59.6 µM (inactive)
NCI-H23
  GI50: > 100 µM (inactive)
NCI-H460
  GI50: > 100 µM (inactive)
NCI-H522
  GI50: > 100 µM (inactive)
NCI/ADR-RES
  GI50: > 100 µM (inactive)
OVCAR-3
  GI50: > 100 µM (inactive)
OVCAR-4
  GI50: 1.14 µM (inactive)
OVCAR-5
  GI50: 75.9 µM (inactive)
OVCAR-8
  GI50: > 100 µM (inactive)
PC-3
  GI50: > 100 µM (inactive)
RXF 393
  GI50: > 100 µM (inactive)
SF-268
  GI50: > 100 µM (inactive)
SF-295
  GI50: > 100 µM (inactive)
SF-539
  GI50: > 100 µM (inactive)
SK-MEL-28
  GI50: > 100 µM (inactive)
SK-MEL-2
  GI50: > 100 µM (inactive)
SK-MEL-5
  GI50: > 100 µM (inactive)
SK-OV-3
  GI50: > 100 µM (inactive)
SN12C
  GI50: > 100 µM (inactive)
SNB-19
  GI50: > 100 µM (inactive)
SNB-75
  GI50: > 100 µM (inactive)
SR
  GI50: > 100 µM (inactive)
SW-620
  GI50: > 100 µM (inactive)
T47D
  GI50: > 100 µM (inactive)
TK-10
  GI50: > 100 µM (inactive)
U-251
  GI50: > 100 µM (inactive)
UACC-257
  GI50: > 100 µM (inactive)
UACC-62
  GI50: > 100 µM (inactive)
UO-31
  GI50: > 100 µM (inactive)
